This assay concerns the target T1, MCT1 (monocarboxylate transporter 1) (Rattus norvegicus, UniProt P53987).
T1 construct: gene Slc16a1
T1 sequence (P53987 1-494): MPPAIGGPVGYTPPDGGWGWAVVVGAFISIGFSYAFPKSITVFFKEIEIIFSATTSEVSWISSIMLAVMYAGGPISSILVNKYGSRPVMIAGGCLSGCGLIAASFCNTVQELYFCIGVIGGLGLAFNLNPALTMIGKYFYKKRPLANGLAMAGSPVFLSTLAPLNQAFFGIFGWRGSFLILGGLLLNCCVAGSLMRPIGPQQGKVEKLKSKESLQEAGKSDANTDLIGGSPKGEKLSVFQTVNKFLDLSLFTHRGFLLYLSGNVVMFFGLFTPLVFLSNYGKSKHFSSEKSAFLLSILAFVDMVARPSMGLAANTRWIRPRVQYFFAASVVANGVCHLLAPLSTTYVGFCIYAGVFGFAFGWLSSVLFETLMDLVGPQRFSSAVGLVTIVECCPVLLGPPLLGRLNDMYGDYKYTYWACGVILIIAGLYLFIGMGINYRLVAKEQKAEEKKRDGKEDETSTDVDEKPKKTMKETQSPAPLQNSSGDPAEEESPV
Kind of assay: […]lactate uptake inhibition in RBE4 rat brain endothelial cells (only MCT1 isoform expressed). It is filed as cell-based.

`CCCN(c1ccc(/C=C(\C#N)C(=O)O)c(OC)c1)c1cccc(F)n1` [compound 1, (E)-2-Cyano-3-(4-((6-fluoropyridin-2-yl)(propyl)amino)-2-methoxyphenyl)acrylic Acid]: half-maximal inhibition (IC50) was put at 118 nM.

`COc1cc(N(c2ccccc2)c2cccc(F)n2)ccc1/C=C(\C#N)C(=O)O` [compound 2, (E)-2-Cyano-3-(4-((6-fluoropyridin-2-yl)(phenyl)amino)-2-methoxyphenyl)acrylic Acid]: the IC50 was found to be 274 nM.

The values are drawn from article PMC7288138, “Development of Novel Analogs of the Monocarboxylate Transporter Ligand FACH and Biological Validation of One Potential Radiotracer for Positron Emission Tomography (PET) Imaging” (Molecules, 2020).
